From PubChem BioAssay (NCI)
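Compound exposure: 48 hours, 5 concentrations, 96-well plates. TGI: concentration producing complete growth inhibition.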

Assays:
Assay in all cases: NCI anticancer screen, dose series, 48 h
OVCAR-5 ovarian = test system: OVCAR-5 ovarian
SNB-75 CNS = test system: SNB-75 CNS
T-47D breast = test system: T-47D breast
SF-268 CNS = test system: SF-268 CNS
KM12 colon = test system: KM12 colon
HOP-92 NSCLC = test system: HOP-92 NSCLC
SNB-19 CNS = test system: SNB-19 CNS
RPMI-8226 leukemia = test system: RPMI-8226 leukemia
NCI-H23 lung = test system: NCI-H23 lung
U251 CNS = test system: U251 CNS
MALME-3M melanoma = test system: MALME-3M melanoma
K-562 leukemia = test system: K-562 leukemia
SF-295 CNS = test system: SF-295 CNS
HCT-116 colon = test system: HCT-116 colon
HOP-62 NSCLC = test system: HOP-62 NSCLC
UO-31 renal = test system: UO-31 renal
COLO 205 colon = test system: COLO 205 colon
NCI-H522 lung = test system: NCI-H522 lung
SK-MEL-28 melanoma = test system: SK-MEL-28 melanoma
LOX IMVI melanoma = test system: LOX IMVI melanoma
RXF 393 renal = test system: RXF 393 renal
UACC-257 melanoma = test system: UACC-257 melanoma
MDA-MB-435 = test system: MDA-MB-435
MCF7 breast = test system: MCF7 breast
OVCAR-4 ovarian = test system: OVCAR-4 ovarian
NCI-H226 lung = test system: NCI-H226 lung
BT-549 breast = test system: BT-549 breast
HS 578T breast = test system: HS 578T breast
SK-MEL-2 melanoma = test system: SK-MEL-2 melanoma
NCI-H460 lung = test system: NCI-H460 lung
SK-OV-3 ovarian = test system: SK-OV-3 ovarian
SK-MEL-5 melanoma = test system: SK-MEL-5 melanoma
IGROV1 ovarian = test system: IGROV1 ovarian
SN12C renal = test system: SN12C renal
A549 NSCLC = test system: A549 NSCLC
786-0 renal = test system: 786-0 renal
SW-620 colon = test system: SW-620 colon
MDA-N = test system: MDA-N
UACC-62 melanoma = test system: UACC-62 melanoma
M14 melanoma = test system: M14 melanoma
A498 renal = test system: A498 renal
MDA-MB-231 breast = test system: MDA-MB-231 breast
OVCAR-8 ovarian = test system: OVCAR-8 ovarian
NCI/ADR-RES ovarian = test system: NCI/ADR-RES ovarian
HCT-15 colon = test system: HCT-15 colon
OVCAR-3 ovarian = test system: OVCAR-3 ovarian
HL-60(TB) leukemia = test system: HL-60(TB) leukemia
EKVX NSCLC = test system: EKVX NSCLC
ACHN renal = test system: ACHN renal
CCRF-CEM leukemia = test system: CCRF-CEM leukemia
DU-145 prostate = test system: DU-145 prostate
MOLT-4 leukemia = test system: MOLT-4 leukemia
HT29 colon = test system: HT29 colon
PC-3 prostate = test system: PC-3 prostate
CAKI-1 renal = test system: CAKI-1 renal
SR leukemia = test system: SR leukemia
TK-10 renal = test system: TK-10 renal
SF-539 CNS = test system: SF-539 CNS
HCC-2998 colon = test system: HCC-2998 colon

Measured: TGI

NCC(O)CSP(=O)(O)O (stereo not given)
not listed: SF-539 CNS | HCC-2998 colon
> 100 µM: all other assays above

COc1nc2ncc([C@@H](O)[C@H](O)CO)nc2c(=O)n1C
not listed: NCI-H23 lung | HCC-2998 colon
> 100 µM: all other assays above

O=C(O)C1(Cc2ccccc2)Cc2ccccc2C1
not listed: HOP-92 NSCLC | 786-0 renal | CAKI-1 renal
> 100 µM: all other assays above
